# “Also recorded” adds a separate entry of the source.
# Experiments:
# [1] = test system: Human diploid fibroblasts BJ; assay: Viability of human diploid fibroblasts by MTT assay; assay type: cell-based; conditions: 0-25 μM, 72 hours, BJ passage 19
# Experimental: MTT is a standard colorimetric assay for measurement of proliferation and survival of the cells. Yellow MTT is reduced into violet formazan in metabolically active cells. The amount of the resulting formazan is measured by spectrophotometry. Human diploid fibroblasts BJ (passage 19) were seeded in 96-well plate (5.000 cells per well). After 6 hours, the cultivation medium (DMEM containing 5 g/l glucose, 2 mM glutamine, 100 U/ml penicillin, 100 μg/ml streptomycin and 10% fetal calf serum) was removed and fresh medium containing a test compound in concentrations 0-25 μM was added. Each concentration was tested in 5 replicates. MTT was added to the cells after 72 hours into final concentration of 0.5 mg/ml. Incubation time was 3 hours.
# [2] = test system: Human diploid fibroblasts SNF25; assay: In vitro toxicity by evaluation of growth curve; assay type: cell-based; conditions: 0-12.5 μM, 12 days, SNF25 passage 27
# Experimental: Human diploid fibroblasts SNF25 (passage 27) were seeded in 24-well plate (10.000 cells/well). The cultivation medium (DMEM containing 5 g/l glucose, 2 mM glutamin, 100 U/ml penicillin, 100 μg/ml streptomycin and 10% fetal calf serum) was removed and replaced with the cultivation medium containing the tested compound in concentration range of 0-12.5 μM. Each concentration was tested in triplicate. The cell number was counted during next 12 days.
# [3] = test system: Senescent human diploid fibroblasts SNF25; assay: Effect on senescent human diploid fibroblasts (cell number); assay type: cell-based; conditions: 0-12.5 μM, days 7 and 14, SNF25 passage 53
# Experimental: Senescent human diploid fibroblasts SNF25 (passage 53) were seeded in 24-well plate (10.000 cells/well). The cultivation medium (DMEM containing 5 g/l glucose, 2 mM glutamin, 100 U/ml penicillin, […] streptomycin and 10% fetal calf serum) was removed and replaced with the cultivation medium containing test compound in concentration range of 0-12.5 μM. Each concentration was tested in triplicate. The cell numbers were determined on days 7 and 14.
# [4] = test system: Transgenic 35S:AtCKX1 Arabidopsis seedlings; assay: Foliar spray of CKX overproducing Arabidopsis seedlings grown in soil, phenotype complementation; assay type: in vivo; conditions: 10 μM sprayed every second day for 1 month
# Experimental: (§1) Transgenic 35S:AtCKX1 Arabidopsis and 35S:AtCKX1 and 35S:AtCKX2 tobacco seedlings grown in soil in the greenhouse were systematically treated with 10 μM of compound 12. Areal parts of the wild type and transgenic seedlings were sprayed every second day for 1 month with aqueous solution of compound 12 containing 0.01% Silwet L-77 wetting agent.
# [5] = test system: 35S:AtCKX1 and 35S:AtCKX2 tobacco seedlings; assay: Foliar spray of CKX overproducing tobacco seedlings grown in soil, phenotype complementation and root system; assay type: in vivo
# Experimental: as §1
# [6] = test system: CKX1 overproducing Arabidopsis seedlings; assay: CKX1 overproducing Arabidopsis seedlings grown in vitro on MS medium, phenotype reversion; assay type: in vivo; conditions: in vitro on MS medium containing 0.1 μM compound
# WT Arabidopsis plants = assay: Prolonged treatment of WT Arabidopsis plants, flowering; assay type: in vivo
# Experimental: as §1
# Flowers had aborted anthers and were sterile.
# [7] = test system: Human diploid fibroblasts HCA; assay: Anti-aging activity: senescence-associated beta-galactosidase in human fibroblasts; assay type: cell-based
# Experimental: In this example, effects of the compounds of this invention on the activity of a senescence biomarker senescence-associated β-galactosidase was studied. Human diploid fibroblasts HCA of various passage levels were used for this purpose. The tested compounds were added to the medium at each passage. After the incubation period, cells were washed with PBS and fixed with 2% formaldehyde and 0.2% glutaraldehyde in PBS. After another wash with PBS, they were incubated with the staining solution comprising potassium ferricyanide (5 mM), potassium ferrocyanide (5 mM), MgCl2 (2 mM), X-gal (5-bromo-4-chloro-3-indolyl-β-D-galactopyranoside) (1 mg/ml), in citric/phosphate buffer (pH 6.0) at 37° C. (without CO2) for at least 1 hour. Following the incubation period, the numbers of cells expressing senescence-associated β-galactosidase (blue cells) were counted using light microscope.
# [8] = test system: Rat C6 glioma (ATCC No. CCL107); assay: Anti-inflammatory activity: isoproterenol-induced cAMP synthesis (ELISA); assay type: cell-based; conditions: cAMP after 30 min, induced by (−)-isoproterenol
# Experimental: Anti-inflammatory activity of several of the substituted 6-anilinopurine derivatives of this invention was determined; kinetin was also evaluated as a control. Rat C6 glioma (ATCC No. CCL107) was cultivated in monolayer in serum-free chemically defined medium containing Ham's F10/minimal essential medium (1:1 v/v), 2 mM L-glutamine, 1% (v/v) minimal essential medium vitamins (100×), 1% (v/v) minimal essential medium nonessential amino acids (100×), 100 U/ml penicillin, […], and 30 nM sodium selenite. Incubation was performed at 37° C. in a 100% humidified atmosphere. The assays were performed in the logarithmic growth phase at a density of 2.5×10^5 cells/cm^2. Intracellular cAMP synthesis was induced by addition of 5 mM (−)-isoproterenol; various amounts of test compounds were added at the same time as the (−)-isoproterenol. After 30 min incubation, the cellular amount of cAMP was determined using ELISA (cAMP-enzyme immunoassay kit from Amersham). The I50 values were determined from the dose-response curve in duplicate.
smiles,measurement,setting,value
"Clc1nc(Nc2ccccc2)c2[nH]cnc2n1 [Compound 1, 2-Chloro-6-anilinopurine]",viability of cells (MTT),[1],not toxic for human diploid fibroblasts
same,growth curve (cell number),[2],not toxic against human diploid fibroblasts
same,cell number (cell survival),[3],does not exert significant negative effect on cell survival
"COc1cccc(Nc2nc(Cl)nc3nc[nH]c23)c1 [Compound 12, 2-Chloro-6-(3-methoxyanilino)purine]",complementation of wild-type phenotype (release from growth inhibition),[4],restauration of wild type phenotype
same,complementation of wild-type phenotype (release from growth inhibition),"[5]; 35S:AtCKX1 and 35S:AtCKX2 tobacco, 10 μM sprayed every second day for 1 month",restauration of wild type phenotype
same,effect of foliar application on root system,"[5]; transgenic tobaccos, foliar application, 10 μM",enhancement of the root system
same,reversion of WT phenotype,[6],reversion of WT phenotype appeared
same,effect on flowering,WT Arabidopsis plants,altered development of flowers and inhibition of fertilisation
"c1coc(CNc2ncnc3nc[nH]c23)c1 [Kinetin, 6-furfurylaminopurine, reference compound]",Senescent Cells (%) HCA passage 25,"[7]; passage 25, cells expressing senescence-associated beta-galactosidase",3%
same,Senescent Cells (%) HCA passage 50,"[7]; passage 50, cells expressing senescence-associated beta-galactosidase",5%
same,Senescent Cells (%) HCA passage 80,"[7]; passage 80, cells expressing senescence-associated beta-galactosidase",38%
same,Effect (anti-inflammatory activity),[8],inactive; also recorded: Not active

# Reference: patent US8222260B2, “Substituted 6-anilinopurine derivatives as inhibitors of cytokinin oxidase/dehydrogenase and preparations containing these derivatives” (Univerzita Palackego V Olomouci, priority 2007, dated 2012)
